Measured values published in patent US20160128999A1 (AB SCIENCE, priority 2014, published 2016).

Experiments:
[1] = system: Hepatoma cell line PLC-PRF5; experiment: CellTiter-Blue cell proliferation and viability assay, PLC-PRF5; type: cell-based; conditions: Homo sapiens, PLC-PRF-5; PLC-PRF5, 1% FCS, 72 hours; read-out: IC50 of agent as single agent
Experimental: (§1) During proliferation assays, all cells were grown in medium containing 1% FCS. […] Treatment was started by the addition of 50 μl of a 2× concentrated drug solution to a final volume of 100 μl. […] After incubating for 72 hours at 37° C., 10 μl of a 1⁄2 dilution of CellTiter-Blue reagent was added to each well and the plates were returned to the incubator for an additional 4 hours. The fluorescence intensity from the CellTiter-Blue reagent is proportional to the number of viable cells and data were recorded (544Ex/590Em) using a POLARstar OMEGA microplate reader (BMG Labteck Sarl). A background control without cells was used as a blank. The positive control of the assay corresponds to the cell proliferation obtained in the absence of drug treatment (100% proliferation). Each sample was done in duplicate, the […] values were transferred to an excel file, the average and standard deviation of the duplicates were calculated and expressed as a percentage of the proliferation obtained in absence of treatment. The results presented are representative of a minimum of 3 experiments.

Hepatoma cell line HepG2 = experiment: CellTiter-Blue cell proliferation and viability assay, HepG2; type: cell-based; conditions: Homo sapiens; HepG2, 1% FCS, 72 hours; read-out: IC50 of agent as single agent
Experimental: as §1

[2] = system: advanced Hepatocellular carcinoma (BCLC stage C); conditions: BCLC C patients, first line sorafenib; cited from earlier work
[3] = clinically achievable concentration; read-out: Approximate Cmax measured in plasma; cited from earlier work

Row | IC50 [1] [µM] | IC50 (Hepatoma cell line HepG2) [µM] | Compound | median OS [2] [months] | Cmax [3] [µM]
1 | 100 | 100 | CCc1c2c(nc3ccc(OC(=O)N4CCC(N5CCCCC5)CC4)cc13)-c1cc3c(c(=O)n1C2)COC(=O)[C@]3(O)CC [CPT-11] | – | 1 to 10
2 | 50 | > 100 | COc1cc([C@@H]2c3cc4c(cc3[C@@H](O[C@@H]3O[C@@H]5CO[C@@H](C)O[C@H]5[C@H](O)[C@H]3O)[C@H]3COC(=O)[C@H]23)OCO4)cc(OC)c1O [VP-16] | – | ~34

Second part, the compound before the results:

Row | Compound | IC50 [1] [µM] | IC50 (Hepatoma cell line HepG2) [µM] | median OS [2] [months] | Cmax [3] [µM]
3 | Cc1ccc(NC(=O)c2ccc(CN3CCN(C)CC3)cc2)cc1Nc1nc(-c2cccnc2)cs1 [masitinib mesilate] | > 5 | > 5 | – | –
4 | Nc1ccn([C@@H]2O[C@H](CO)[C@@H](O)C2(F)F)c(=O)n1 [GCB, 2′,2′,-dofluoro-2′,-deoxycytidine] | – | > 100 | – | –
5 | COc1cccc2c1C(=O)c1c(O)c3c(c(O)c1C2=O)C[C@@](O)(C(=O)CO)C[C@@H]3O[C@H]1C[C@H](N)[C@H](O)[C@H](C)O1 [DOX] | – | 5 | – | –
6 | CNC(=O)c1cc(Oc2ccc(NC(=O)Nc3ccc(Cl)c(C(F)(F)F)c3)cc2)ccn1 [sorafenib] | – | – | 9.5 | –
7 | CC[C@]1(O)C[C@H]2CN(CCc3c([nH]c4ccccc34)[C@@](C(=O)OC)(c3cc4c(cc3OC)N(C=O)[C@H]3[C@@](O)(C(=O)OC)[C@H](OC(C)=O)[C@]5(CC)C=CCN6CC[C@]43[C@@H]65)C2)C1 [VINC] | 0.1 to 1 | 0.1 to 1 | – | –
